Data from PubChem BioAssay (NCI).
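In this assay, cells in 96-well plates receive the compound at five concentrations for 48 hours. Endpoints are linearly interpolated between the surrounding concentrations. At the GI50, growth is halved. Definition used: TGI = concentration required for complete inhibition of growth.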

Assays:
Test in all cases: NCI anticancer screen, dose series, 48 h
[1] = tested on: RXF 393 renal
[2] = tested on: SR leukemia
[3] = tested on: MDA-MB-435
[4] = tested on: SNB-75 CNS
[5] = tested on: UO-31 renal
[6] = tested on: ACHN renal
[7] = tested on: NCI-H226 lung
[8] = tested on: A549 NSCLC
[9] = tested on: SF-268 CNS
[10] = tested on: EKVX NSCLC
[11] = tested on: HOP-62 NSCLC
[12] = tested on: NCI-H460 lung
[13] = tested on: K-562 leukemia
[14] = tested on: OVCAR-3 ovarian
[15] = tested on: SW-620 colon
[16] = tested on: HCT-15 colon
[17] = tested on: KM12 colon
[18] = tested on: UACC-257 melanoma
[19] = tested on: CCRF-CEM leukemia
[20] = tested on: MALME-3M melanoma
[21] = tested on: MCF7 breast
[22] = tested on: SK-MEL-2 melanoma
[23] = tested on: OVCAR-4 ovarian
[24] = tested on: MOLT-4 leukemia
[25] = tested on: CAKI-1 renal
[26] = tested on: NCI-H23 lung
[27] = tested on: OVCAR-8 ovarian
[28] = tested on: SK-OV-3 ovarian
[29] = tested on: SF-539 CNS
[30] = tested on: HL-60(TB) leukemia
[31] = tested on: OVCAR-5 ovarian
[32] = tested on: 786-0 renal
[33] = tested on: A498 renal
[34] = tested on: IGROV1 ovarian
[35] = tested on: NCI-H522 lung
[36] = tested on: HOP-92 NSCLC
[37] = tested on: SF-295 CNS
[38] = tested on: HCC-2998 colon
[39] = tested on: HCT-116 colon
[40] = tested on: NCI/ADR-RES ovarian
[41] = tested on: HT29 colon
[42] = tested on: BT-549 breast
[43] = tested on: SK-MEL-5 melanoma
[44] = tested on: RPMI-8226 leukemia
[45] = tested on: PC-3 prostate
[46] = tested on: U251 CNS
[47] = tested on: DU-145 prostate
[48] = tested on: HS 578T breast
[49] = tested on: T-47D breast
[50] = tested on: MDA-MB-231 breast
[51] = tested on: TK-10 renal
[52] = tested on: M14 melanoma
[53] = tested on: SNB-19 CNS
[54] = tested on: SN12C renal
[55] = tested on: LOX IMVI melanoma
[56] = tested on: UACC-62 melanoma
[57] = tested on: COLO 205 colon
[58] = tested on: SK-MEL-28 melanoma

Compound: O=C(Nc1ccc(-c2nc(N3CCOCC3)c3cccn3n2)cc1)Nc1cccnc1
- GI50 [1]: 34.5 nM
- TGI [1]: 359 nM
- GI50 [2]: 245 nM
- TGI [2]: 15000 nM
- GI50 [3]: 225 nM
- TGI [3]: > 100000 nM
- GI50 [4]: 43.2 nM
- TGI [4]: 640 nM
- GI50 [5]: 61.9 nM
- TGI [5]: 546 nM
- GI50 [6]: 189 nM
- TGI [6]: 3640 nM
- GI50 [7]: 141 nM
- TGI [7]: 1100 nM
- GI50 [8]: 244 nM
- TGI [8]: > 100000 nM
- GI50 [9]: 248 nM
- TGI [9]: 87600 nM
- GI50 [10]: 216 nM
- TGI [10]: 975 nM
- GI50 [11]: 336 nM
- TGI [11]: > 100000 nM
- GI50 [12]: 142 nM
- TGI [12]: > 100000 nM
- GI50 [13]: 195 nM
- TGI [13]: > 100000 nM
- GI50 [14]: 152 nM
- TGI [14]: 1060 nM
- GI50 [15]: 52.4 nM
- TGI [15]: > 100000 nM
- GI50 [16]: 143 nM
- TGI [16]: > 100000 nM
- GI50 [17]: 162 nM
- TGI [17]: 16700 nM
- GI50 [18]: 428 nM
- TGI [18]: 40800 nM
- GI50 [19]: 54.7 nM
- TGI [19]: > 100000 nM
- GI50 [20]: 82 nM
- TGI [20]: 471 nM
- GI50 [21]: 48.3 nM
- TGI [21]: 1490 nM
- GI50 [22]: 333 nM
- TGI [22]: > 100000 nM
- GI50 [23]: 118 nM
- TGI [23]: 1270 nM
- GI50 [24]: 230 nM
- TGI [24]: 6800 nM
- GI50 [25]: 185 nM
- TGI [25]: 3850 nM
- GI50 [26]: 269 nM
- TGI [26]: > 100000 nM
- GI50 [27]: 49.1 nM
- TGI [27]: > 100000 nM
- GI50 [28]: 98.7 nM
- TGI [28]: 596 nM
- GI50 [29]: 39.6 nM
- TGI [29]: 296 nM
- GI50 [30]: 359 nM
- TGI [30]: > 100000 nM
- GI50 [31]: 71 nM
- TGI [31]: > 100000 nM
- GI50 [32]: 178 nM
- TGI [32]: 1980 nM
- GI50 [33]: 47.5 nM
- TGI [33]: 328 nM
- GI50 [34]: 76.7 nM
- TGI [34]: 464 nM
- GI50 [35]: 125 nM
- TGI [35]: > 100000 nM
- TGI [36]: 63.7 nM
- GI50 [37]: 102 nM
- TGI [37]: 581 nM
- GI50 [38]: 253 nM
- TGI [38]: > 100000 nM
- GI50 [39]: 41 nM
- TGI [39]: 27700 nM
- GI50 [40]: 393 nM
- TGI [40]: 6270 nM
- GI50 [41]: 300 nM
- TGI [41]: > 100000 nM
- GI50 [42]: 145 nM
- TGI [42]: 951 nM
- GI50 [43]: 196 nM
- TGI [43]: 847 nM
- GI50 [44]: 138 nM
- TGI [44]: 1360 nM
- GI50 [45]: 51.2 nM
- TGI [45]: 2270 nM
- GI50 [46]: 180 nM
- TGI [46]: > 100000 nM
- GI50 [47]: 212 nM
- TGI [47]: > 100000 nM
- GI50 [48]: 54.5 nM
- TGI [48]: 416 nM

Compound: CCCCCCCC[C@@H](O)CC(=O)N[C@@H](CC(N)=O)C(=O)N[C@@H](CCC(N)=O)C(=O)N[C@@H](CC(=O)c1cc(C)cc(O)c1C(=O)c1c(O)cccc1O)CC(C)C
- GI50 [1]: 214 nM
- TGI [1]: 713 nM
- GI50 [2]: 112 nM
- TGI [2]: > 100000 nM
- GI50 [4]: 199 nM
- TGI [4]: 585 nM
- GI50 [5]: 3900 nM
- TGI [5]: 24700 nM
- GI50 [6]: 3090 nM
- TGI [6]: > 100000 nM
- GI50 [7]: 237 nM
- TGI [7]: 746 nM
- GI50 [8]: 5310 nM
- TGI [8]: > 100000 nM
- GI50 [9]: 374 nM
- TGI [9]: 2550 nM
- GI50 [10]: 3350 nM
- TGI [10]: 75500 nM
- GI50 [11]: 860 nM
- TGI [11]: 4920 nM
- GI50 [12]: 3290 nM
- TGI [12]: 18300 nM
- GI50 [13]: 408 nM
- TGI [13]: > 100000 nM
- GI50 [14]: 307 nM
- TGI [14]: 1200 nM
- GI50 [49]: 1150 nM
- TGI [49]: 4510 nM
- GI50 [15]: 426 nM
- TGI [15]: 23600 nM
- GI50 [16]: 2250 nM
- TGI [16]: 23800 nM
- GI50 [17]: 971 nM
- TGI [17]: 3300 nM
- GI50 [18]: 450 nM
- TGI [18]: 4680 nM
- GI50 [50]: 678 nM
- TGI [50]: 68300 nM
- GI50 [19]: 398 nM
- TGI [19]: > 100000 nM
- GI50 [20]: 667 nM
- TGI [20]: > 100000 nM
- GI50 [51]: 179 nM
- TGI [51]: 1260 nM
- GI50 [21]: 539 nM
- TGI [21]: > 100000 nM
- GI50 [22]: 2760 nM
- TGI [22]: 8320 nM
- GI50 [52]: 735 nM
- TGI [52]: 18400 nM
- GI50 [53]: 244 nM
- TGI [53]: > 100000 nM
- GI50 [23]: 2070 nM
- TGI [23]: > 100000 nM
- GI50 [24]: 308 nM
- TGI [24]: > 100000 nM
- GI50 [25]: 1510 nM
- TGI [25]: > 100000 nM
- GI50 [26]: 1360 nM
- TGI [26]: 14800 nM
- GI50 [27]: 3230 nM
- TGI [27]: 46600 nM
- GI50 [54]: 2130 nM
- TGI [54]: 15800 nM
- GI50 [28]: 12600 nM
- TGI [28]: > 100000 nM
- GI50 [29]: 253 nM
- TGI [29]: 783 nM
- GI50 [30]: 1890 nM
- TGI [30]: > 100000 nM
- TGI [31]: 27700 nM
- GI50 [32]: 507 nM
- TGI [32]: 9840 nM
- GI50 [33]: 2290 nM
- TGI [33]: 7440 nM
- GI50 [34]: 261 nM
- TGI [34]: > 100000 nM
- GI50 [35]: 228 nM
- TGI [35]: 815 nM
- GI50 [36]: 201 nM
- TGI [36]: 939 nM
- GI50 [55]: 1320 nM
- TGI [55]: 3900 nM
- GI50 [37]: 1970 nM
- TGI [37]: 7530 nM
- GI50 [38]: 403 nM
- TGI [38]: 1430 nM
- GI50 [39]: 303 nM
- TGI [39]: 1780 nM
- GI50 [40]: 39600 nM
- TGI [40]: > 100000 nM
- GI50 [41]: 404 nM
- TGI [41]: 5490 nM
- GI50 [42]: 296 nM
- TGI [42]: 2250 nM
- GI50 [44]: 92.6 nM
- TGI [44]: 883 nM
- GI50 [45]: 310 nM
- TGI [45]: 47900 nM
- GI50 [56]: 317 nM
- TGI [56]: 1890 nM
- GI50 [46]: 265 nM
- TGI [46]: 2330 nM
- GI50 [57]: 399 nM
- TGI [57]: 12000 nM
- GI50 [47]: 1140 nM
- TGI [47]: 18300 nM
- GI50 [48]: 3460 nM
- TGI [48]: 62000 nM
- GI50 [58]: 1590 nM
- TGI [58]: 25500 nM
